Assays:
[1] = Toxicity in wild type zebrafish embryos assessed as dead embryo at 25 ug/ml treated for 96 hrs post fertilization starting from 6 hrs post fertilization by inverted microscopic analysis relative to control; format: organism-based, Danio rerio; settings: in vivo, read-out: Activity
Danio rerio [2] = species: Danio rerio; test: Toxicity in wild type zebrafish embryos assessed as teratogenic embryo at 25 ug/ml treated for 96 hrs post fertilization starting from 6 hrs post fertilization by inverted microscopic analysis relative to control; format: organism-based; settings: in vivo
Danio rerio [3] = species: Danio rerio; test: Toxicity in wild type zebrafish embryos assessed as growth retardation at 25 ug/ml treated for 96 hrs post fertilization starting from 6 hrs post fertilization by inverted microscopic analysis relative to control; format: organism-based; settings: in vivo
Melanocyte [4] = test: Cytotoxicity against wild type zebrafish embryo melanocytes assessed as punctate cells at 12.5 ug/ml treated for 72 hrs post fertilization starting from 6 to 24 hrs post fertilization; format: cell-based, Danio rerio
Danio rerio [5] = test: Toxicity in wild type zebrafish embryos assessed as pericardial edema at 25 ug/ml treated for 96 hrs post fertilization starting from 6 hrs post fertilization by inverted microscopic analysis relative to control; format: organism-based; settings: in vivo
Danio rerio [6] = species: Danio rerio; test: Toxicity in wild type zebrafish embryos assessed as normal embryo at 25 ug/ml treated for 96 hrs post fertilization starting from 6 hrs post fertilization by inverted microscopic analysis relative to control; format: organism-based; settings: in vivo
Melanocyte [7] = test: Cytotoxicity against wild type zebrafish embryo melanocytes assessed as barely visible cells at 12.5 ug/ml treated for 72 hrs post fertilization starting from 6 to 24 hrs post fertilization; format: cell-based, Danio rerio
Danio rerio [8] = test: Toxicity in wild type zebrafish embryos assessed as yolk edema at 25 ug/ml treated for 96 hrs post fertilization starting from 6 hrs post fertilization by inverted microscopic analysis relative to control; format: organism-based; settings: in vivo
Danio rerio [9] = species: Danio rerio; test: Toxicity in wild type zebrafish embryos assessed as skeletal deformities at 25 ug/ml treated for 96 hrs post fertilization starting from 6 hrs post fertilization by inverted microscopic analysis relative to control; format: organism-based; settings: in vivo
Melanocyte [10] = test: Cytotoxicity against wild type zebrafish embryo melanocytes assessed as change in morphology at 2.5 mg/ml treated for 72 hrs post fertilization starting from 6 to 24 hrs post fertilization; format: cell-based, Danio rerio
Danio rerio [11] = test: Toxicity in wild type zebrafish embryos assessed as yolk edema at 20 ug/ml treated for 96 hrs post fertilization starting from 6 hrs post fertilization by inverted microscopic analysis relative to control; format: organism-based; settings: in vivo
[12] = Toxicity in wild type zebrafish embryos assessed as dead embryo at 5 ug/ml treated for 96 hrs post fertilization starting from 6 hrs post fertilization by inverted microscopic analysis relative to control; format: organism-based, Danio rerio; settings: in vivo, read-out: Activity
[13] = Toxicity in wild type zebrafish embryos assessed as dead embryo at 10 ug/ml treated for 96 hrs post fertilization starting from 6 hrs post fertilization by inverted microscopic analysis relative to control; format: organism-based, Danio rerio; settings: in vivo, read-out: Activity
Danio rerio [14] = species: Danio rerio; test: Toxicity in wild type zebrafish embryos assessed as otoliths at 10 ug/ml treated for 96 hrs post fertilization starting from 6 hrs post fertilization by inverted microscopic analysis relative to control; format: organism-based; settings: in vivo
Danio rerio [15] = test: Toxicity in wild type zebrafish embryos assessed as yolk edema at 5 ug/ml treated for 96 hrs post fertilization starting from 6 hrs post fertilization by inverted microscopic analysis relative to control; format: organism-based; settings: in vivo
Danio rerio [16] = species: Danio rerio; test: Toxicity in wild type zebrafish embryos assessed as heart beat at 10 ug/ml treated for 96 hrs post fertilization starting from 6 hrs post fertilization by inverted microscopic analysis relative to control; format: organism-based; settings: in vivo
Danio rerio [17] = species: Danio rerio; test: Toxicity in wild type zebrafish embryos assessed as unhatched embryo at 5 ug/ml treated for 96 hrs post fertilization starting from 6 hrs post fertilization by inverted microscopic analysis relative to control; format: organism-based; settings: in vivo
Danio rerio [18] = species: Danio rerio; test: Toxicity in wild type zebrafish embryos assessed as normal embryo at 50 ug/ml treated for 96 hrs post fertilization starting from 6 hrs post fertilization by inverted microscopic analysis relative to control; format: organism-based; settings: in vivo
Danio rerio [19] = species: Danio rerio; test: Toxicity in wild type zebrafish embryos assessed as otoliths at 20 ug/ml treated for 96 hrs post fertilization starting from 6 hrs post fertilization by inverted microscopic analysis relative to control; format: organism-based; settings: in vivo
Danio rerio [20] = species: Danio rerio; test: Toxicity in wild type zebrafish embryos assessed as teratogenic embryo at 20 ug/ml treated for 96 hrs post fertilization starting from 6 hrs post fertilization by inverted microscopic analysis relative to control; format: organism-based; settings: in vivo
Danio rerio [21] = species: Danio rerio; test: Toxicity in wild type zebrafish embryos assessed as unhatched embryo at 10 ug/ml treated for 96 hrs post fertilization starting from 6 hrs post fertilization by inverted microscopic analysis relative to control; format: organism-based; settings: in vivo
Danio rerio [22] = species: Danio rerio; test: Toxicity in wild type zebrafish embryos assessed as blood circulation at 5 ug/ml treated for 96 hrs post fertilization starting from 6 hrs post fertilization by inverted microscopic analysis relative to control; format: organism-based; settings: in vivo
Danio rerio [23] = species: Danio rerio; test: Toxicity in wild type zebrafish embryos assessed as head malformation at 10 ug/ml treated for 96 hrs post fertilization starting from 6 hrs post fertilization by inverted microscopic analysis relative to control; format: organism-based; settings: in vivo
Danio rerio [24] = species: Danio rerio; test: Toxicity in wild type zebrafish embryos assessed as blood circulation at 10 ug/ml treated for 96 hrs post fertilization starting from 6 hrs post fertilization by inverted microscopic analysis relative to control; format: organism-based; settings: in vivo
Danio rerio [25] = species: Danio rerio; test: Toxicity in wild type zebrafish embryos assessed as head malformation at 5 ug/ml treated for 96 hrs post fertilization starting from 6 hrs post fertilization by inverted microscopic analysis relative to control; format: organism-based; settings: in vivo
Danio rerio [26] = species: Danio rerio; test: Toxicity in wild type zebrafish embryos assessed as growth retardation at 10 ug/ml treated for 96 hrs post fertilization starting from 6 hrs post fertilization by inverted microscopic analysis relative to control; format: organism-based; settings: in vivo
Danio rerio [27] = species: Danio rerio; test: Toxicity in wild type zebrafish embryos assessed as growth retardation at 20 ug/ml treated for 96 hrs post fertilization starting from 6 hrs post fertilization by inverted microscopic analysis relative to control; format: organism-based; settings: in vivo
Danio rerio [28] = species: Danio rerio; test: Toxicity in wild type zebrafish embryos assessed as teratogenic embryo at 5 ug/ml treated for 96 hrs post fertilization starting from 6 hrs post fertilization by inverted microscopic analysis relative to control; format: organism-based; settings: in vivo
Danio rerio [29] = species: Danio rerio; test: Toxicity in wild type zebrafish embryos assessed as eyes at 10 ug/ml treated for 96 hrs post fertilization starting from 6 hrs post fertilization by inverted microscopic analysis relative to control; format: organism-based; settings: in vivo
Danio rerio [30] = species: Danio rerio; test: Toxicity in wild type zebrafish embryos assessed as otoliths at 5 ug/ml treated for 96 hrs post fertilization starting from 6 hrs post fertilization by inverted microscopic analysis relative to control; format: organism-based; settings: in vivo
[31] = Toxicity in wild type zebrafish embryos assessed as dead embryo at 20 ug/ml treated for 96 hrs post fertilization starting from 6 hrs post fertilization by inverted microscopic analysis relative to control; format: organism-based, Danio rerio; settings: in vivo, read-out: Activity
Danio rerio [32] = species: Danio rerio; test: Toxicity in wild type zebrafish embryos assessed as notochord at 10 ug/ml treated for 96 hrs post fertilization starting from 6 hrs post fertilization by inverted microscopic analysis relative to control; format: organism-based; settings: in vivo
Danio rerio [33] = test: Toxicity in wild type zebrafish embryos assessed as yolk edema at 10 ug/ml treated for 96 hrs post fertilization starting from 6 hrs post fertilization by inverted microscopic analysis relative to control; format: organism-based; settings: in vivo
Danio rerio [34] = species: Danio rerio; test: Toxicity in wild type zebrafish embryos assessed as eyes at 5 ug/ml treated for 96 hrs post fertilization starting from 6 hrs post fertilization by inverted microscopic analysis relative to control; format: organism-based; settings: in vivo
Danio rerio [35] = species: Danio rerio; test: Toxicity in wild type zebrafish embryos assessed as normal embryo at 20 ug/ml treated for 96 hrs post fertilization starting from 6 hrs post fertilization by inverted microscopic analysis relative to control; format: organism-based; settings: in vivo
Danio rerio [36] = species: Danio rerio; test: Toxicity in wild type zebrafish embryos assessed as heart beat at 20 ug/ml treated for 96 hrs post fertilization starting from 6 hrs post fertilization by inverted microscopic analysis relative to control; format: organism-based; settings: in vivo
Danio rerio [37] = species: Danio rerio; test: Toxicity in wild type zebrafish embryos assessed as normal embryo at 5 ug/ml treated for 96 hrs post fertilization starting from 6 hrs post fertilization by inverted microscopic analysis relative to control; format: organism-based; settings: in vivo

| SMILES | mortality at 25 ug/ml [1] | Activity (Danio rerio [2]) | Activity (Danio rerio [3]) | Activity (Melanocyte [4]) | Activity (Danio rerio [5]) | Activity (Danio rerio [6]) | Activity (Melanocyte [7]) | Activity (Danio rerio [8]) | Activity (Danio rerio [9]) | Activity (Melanocyte [10]) | Activity (Danio rerio [11]) | mortality at 5 ug/ml [12] | mortality at 10 ug/ml [13] | Activity (Danio rerio [14]) | Activity (Danio rerio [15]) | Activity (Danio rerio [16]) | Activity (Danio rerio [17]) | Activity (Danio rerio [18]) | Activity (Danio rerio [19]) | Activity (Danio rerio [20]) | further results |
| --- | --- | --- | --- | --- | --- | --- | --- | --- | --- | --- | --- | --- | --- | --- | --- | --- | --- | --- | --- | --- | --- |
| O=c1cc(CO)occ1O [KOJIC ACID] | 0% | 0% | 0% | Non-Toxic | 0% | 100% | Non-Toxic | 0% | 0% | Non-Toxic | – | – | – | – | – | – | – | – | – | – | – |
| Oc1ccc(O)cc1 [HYDROQUINONE] | 93.3% | 6.7% | 100% | Non-Toxic | 100% | 0% | Non-Toxic | 100% | – | – | 100% | 0% | 63.3% | 80% | 0% | 90% | 0% | 0% | 100% | 30% | Activity (Danio rerio [21]): 0%; Activity (Danio rerio [22]): 0%; Activity (Danio rerio [23]): 100%; Activity (Danio rerio [24]): 90%; Activity (Danio rerio [25]): 0%; Activity (Danio rerio [26]): 80%; Activity (Danio rerio [27]): 100%; Activity (Danio rerio [28]): 100%; Activity (Danio rerio [29]): 80%; Activity (Danio rerio [30]): 0%; mortality at 20 ug/ml [31]: 70%; Activity (Danio rerio [32]): 0%; Activity (Danio rerio [33]): 0%; Activity (Danio rerio [34]): 0%; Activity (Danio rerio [35]): 0%; Activity (Danio rerio [36]): 100%; Activity (Danio rerio [37]): 0% |
| O=c1cc(-c2ccccc2)c2c(O)cc(O)cc2o1 | 0% | 0% | 0% | Non-Toxic | 0% | 100% | Non-Toxic | 0% | 0% | Non-Toxic | 0% | 0% | 0% | 0% | 0% | 0% | 0% | 75% | 0% | 0% | Activity (Danio rerio [21]): 0%; Activity (Danio rerio [22]): 0%; Activity (Danio rerio [23]): 0%; Activity (Danio rerio [24]): 0%; Activity (Danio rerio [25]): 0%; Activity (Danio rerio [26]): 0%; Activity (Danio rerio [27]): 0%; Activity (Danio rerio [28]): 0%; Activity (Danio rerio [29]): 0%; Activity (Danio rerio [30]): 0%; mortality at 20 ug/ml [31]: 0%; Activity (Danio rerio [32]): 0%; Activity (Danio rerio [33]): 0%; Activity (Danio rerio [34]): 0%; Activity (Danio rerio [35]): 100%; Activity (Danio rerio [36]): 0%; Activity (Danio rerio [37]): 100% |
| O=c1cc(-c2ccccc2)c2ccc(O)cc2o1 | 0% | 0% | 0% | Non-Toxic | 0% | 100% | Non-Toxic | 0% | 0% | Non-Toxic | 0% | 0% | 0% | 0% | 0% | 0% | 0% | 100% | 0% | 0% | Activity (Danio rerio [21]): 0%; Activity (Danio rerio [22]): 0%; Activity (Danio rerio [23]): 0%; Activity (Danio rerio [24]): 0%; Activity (Danio rerio [25]): 0%; Activity (Danio rerio [26]): 0%; Activity (Danio rerio [27]): 0%; Activity (Danio rerio [28]): 0%; Activity (Danio rerio [29]): 0%; Activity (Danio rerio [30]): 0%; mortality at 20 ug/ml [31]: 0%; Activity (Danio rerio [32]): 0%; Activity (Danio rerio [33]): 0%; Activity (Danio rerio [34]): 0%; Activity (Danio rerio [35]): 100%; Activity (Danio rerio [36]): 0%; Activity (Danio rerio [37]): 100% |

Source: ChEMBL document CHEMBL4177616, “Potent anti-melanogenic activity and favorable toxicity profile of selected 4-phenyl hydroxycoumarins in the zebrafish model and the computational molecular modeling studies” (Bioorg Med Chem, 2017)
